Experimental data taken from ChEMBL document CHEMBL1134981, “Pyrrolidine and piperidine analogues of SC-57461A as potent, orally active inhibitors of leukotriene A(4) hydrolase” (Bioorg Med Chem Lett, 2002).

What was measured:
Homo sapiens = organism: Homo sapiens; assay: Inhibition of leukotriene B4 production in human whole blood; format: functional
Mus musculus [1] = assay: Ex vivo inhibition of LTB4 production in mouse whole blood at 10 mg/kg; format: functional
[2] = target: T1, Leukotriene A-4 hydrolase (Homo sapiens, UniProt P09960); assay: Inhibition of leukotriene A4 hydrolase in human recombinant assay
T1 sequence (P09960 whole entry): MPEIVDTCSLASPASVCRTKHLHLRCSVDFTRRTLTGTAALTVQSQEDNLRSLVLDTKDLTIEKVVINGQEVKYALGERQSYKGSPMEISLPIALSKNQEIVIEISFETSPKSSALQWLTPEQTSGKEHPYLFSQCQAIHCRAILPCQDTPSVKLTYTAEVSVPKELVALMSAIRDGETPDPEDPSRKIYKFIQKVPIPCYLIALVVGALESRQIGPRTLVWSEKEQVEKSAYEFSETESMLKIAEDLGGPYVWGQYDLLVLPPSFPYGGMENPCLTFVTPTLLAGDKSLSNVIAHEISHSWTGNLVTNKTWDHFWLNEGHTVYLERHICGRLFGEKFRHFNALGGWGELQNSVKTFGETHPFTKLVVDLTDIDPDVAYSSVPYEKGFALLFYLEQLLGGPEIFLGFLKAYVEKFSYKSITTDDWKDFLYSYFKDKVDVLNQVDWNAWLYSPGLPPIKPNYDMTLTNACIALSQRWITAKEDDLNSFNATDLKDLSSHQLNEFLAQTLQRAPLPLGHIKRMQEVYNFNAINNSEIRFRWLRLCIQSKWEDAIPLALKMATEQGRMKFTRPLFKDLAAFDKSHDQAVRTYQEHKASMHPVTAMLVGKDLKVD

Mus musculus [3] = organism: Mus musculus; assay: Oral potency for Ex vivo inhibition of LTB4 production in mouse whole blood; format: functional
Rattus norvegicus [4] = assay: The compound was orally efficacious in rat peritoneal Leukotriene B4 production; format: functional; conditions: po
Mus musculus [5] = organism: Mus musculus; assay: Ex vivo inhibition of LTB4 production in mouse whole blood; format: functional
Rhesus monkey = assay: The compound showed excellent potency when dosed orally, inhibiting the production of Leukotriene B4; format: functional, Cercopithecidae; conditions: Macaca mulatta, po
Rattus norvegicus [6] = organism: Rattus norvegicus; assay: The compound was tested for oral efficacy in rat reversed passive dermal Arthus model; 3-10; format: functional

| Compound | IC50 (Homo sapiens) [nM] | inhibition in vivo at 10 mg/kg (Mus musculus [1]; Mus musculus, Blood) [%] | further results |
| --- | --- | --- | --- |
| CNC(=O)C1CCN(CCOc2ccc(Cc3ccccc3)cc2)CC1 | 130 | 92 | – |
| CC(=O)NC1CCN(CCOc2ccc(Cc3ccccc3)cc2)CC1 | 180 | – | – |
| NC(=O)NC1CCN(CCOc2ccc(Cc3ccccc3)cc2)CC1 | 440 | – | – |
| CC(=O)NC1CCN(CCOc2ccc(Cc3ccccc3)cc2)C1 (configuration not stated) | 420 | 22 | – |
| COC(=O)CC1CC2CC1CN2CCOc1ccc(Cc2ccccc2)cc1 (stereo in doubt; 27) | – | – | Inhibition (Mus musculus [1]; 10 mg/kg): 70% |
| OC1CCN(CCOc2ccc(Cc3ccccc3)cc2)C1 (configuration not stated) | – | 50 | IC50 [2]: 30 nM |
| CN(CCCOc1ccc(Cc2ccccc2)cc1)CCC(=O)O | 49 | > 98 | ED90 (Mus musculus [3]): 1 mg/kg |
| COC(=O)[C@@H]1CCCN1CCOc1ccc(Cc2ccccc2)cc1 | 1860 | 0 | – |
| NC1CCN(CCOc2ccc(Cc3ccccc3)cc2)C1 (configuration not stated) | 290 | – | – |
| COC(=O)C1CCN(CCOc2ccc(Cc3ccccc3)cc2)C1 (configuration not stated) | 230 | – | – |
| OCC1CCN(CCOc2ccc(Cc3ccccc3)cc2)CC1 | 580 | 85 | IC50 [2]: 52 nM |
| NC(=O)C1CCN(CCOc2ccc(Cc3ccccc3)cc2)C1 (configuration not stated) | 360 | 60 | – |
| COC(=O)C1CC2CC1CN2CCOc1ccc(Cc2ccccc2)cc1 (configuration not stated) | 200 | 50 | IC50 [2]: 47 nM |
| COC(=O)CC1CC2CC1CN2CCOc1ccc(Cc2ccccc2)cc1 (stereo in doubt; 26) | – | 80 | ED90 (Mus musculus [3]): ≥ 10 mg/kg |
| c1ccc(Cc2ccc(OCCN3CCCC3)cc2)cc1 | 120 | – | – |
| NC(=O)CC1CCN(CCOc2ccc(Cc3ccccc3)cc2)C1 (configuration not stated) | 400 | 4 | – |
| N#CC1CCN(CCOc2ccc(Cc3ccccc3)cc2)CC1 | – | 56 | – |
| c1ccc(Cc2ccc(OCCN3CCC(c4nnn[nH]4)CC3)cc2)cc1 | – | – | ED90 (Mus musculus [3]): 3 mg/kg |
| CCOC(=O)C1CCCN(CCOc2ccc(Cc3ccccc3)cc2)C1 (configuration not stated) | 1650 | – | IC50 [2]: > 3000 nM |
| NC(=O)C1CCN(CCOc2ccc(Cc3ccccc3)cc2)CC1 | 640 | 95 | ED90 (Mus musculus [3]): 3 mg/kg; IC50 [2]: 130 nM |
| CCOC(=O)C1CCN(CCOc2ccc(Cc3ccccc3)cc2)CC1 | 820 | – | ED50 (Rattus norvegicus [4]): 3 mg/kg; ED90 (Rattus norvegicus [4]): 30 mg/kg; IC50 [2]: 1800 nM; ED90 (Mus musculus [5]): 3 mg/kg; ED90 (Rhesus monkey): < 10 mg/kg; ED90 (Rattus norvegicus [6]): 3 mg/kg |
| c1ccc(Cc2ccc(OCCN3CCCCC3)cc2)cc1 | – | 8 | – |
| COC(=O)CC1CCN(CCOc2ccc(Cc3ccccc3)cc2)C1 (configuration not stated) | 240 | 75 | ED90 (Mus musculus [3]): 10 mg/kg |
| O=C(O)C1CCN(CCOc2ccc(Cc3ccccc3)cc2)CC1 | 290 | – | IC50 [2]: 280 nM; inhibition in vivo at 10 mg/kg (Mus musculus [1]): 80% |
| NC(=O)NC1CCN(CCOc2ccc(Cc3ccccc3)cc2)C1 (configuration not stated) | 350 | – | – |
| CCOC(=O)CNC(=O)C1CCN(CCOc2ccc(Cc3ccccc3)cc2)CC1 | 700 | 91 | ED90 (Mus musculus [3]): 3 mg/kg; IC50 [2]: 110 nM |
| NC(=O)N1CCN(CCOc2ccc(Cc3ccccc3)cc2)CC1 | 2400 | – | – |
